Data from US20250092052A1, “HETEROARYL DERIVATIVE COMPOUNDS, AND USES THEREOF” (VORONOI INC., priority 2023, published 2025).

Target: Myt1-KD (Homo sapiens (Human), UniProt Q99640)
Test: Thermal Shift Assay, compound binding to Myt1-KD
Conditions: 2 μM protein, 100 μM compound, Tm of compound minus Tm of DMSO
Description: The degree of compound binding to Myt1-KD was tested using a Thermal Shift Assay. Each protein was diluted to a concentration of 2 μM in 50 mM Tris (pH 7.5) with 100 μM of the compound. SYPRO™ Orange dye was added to the solution, and the plate was transferred to a QuantStudio3 Real-Time PCR System (Applied Biosystems by Thermo Fisher Scientific). […] The degree of protein melting in the presence of the compound compared to DMSO was calculated according to the following Equation 1. ΔTm=Tm (Temperature of Example compound)−Tm (Temperature of DMSO) [Equation 1]

Myt1-KD, sequence (Q99640 110-359): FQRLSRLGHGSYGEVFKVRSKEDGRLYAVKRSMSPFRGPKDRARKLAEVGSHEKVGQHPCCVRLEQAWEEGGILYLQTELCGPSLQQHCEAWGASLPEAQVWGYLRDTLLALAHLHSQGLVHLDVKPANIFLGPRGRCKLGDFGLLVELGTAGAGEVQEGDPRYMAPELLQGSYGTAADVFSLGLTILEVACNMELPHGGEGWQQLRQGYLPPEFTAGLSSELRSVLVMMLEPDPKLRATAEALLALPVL

Structure (SMILES) | ΔTm at 100 µM | ΔTm (° C.)
Cc1ccc(O)c(C)c1-n1c(N)c(C(=O)c2cc3ccccc3[nH]2)c2nccnc21 (atropisomer, axis not shown) [Example 2, (R)-(6-amino-5-(3-hydroxy-2,6-dimethylphenyl)-5H-pyrrolo[2,3-b]pyrazin-7-yl)(1H-indol-2-yl)methanone] | ≤ 5 °C | 
Cc1ccc(O)c(C)c1-n1c(N)c(C(=O)c2nc3ccccc3[nH]2)c2cccnc21 (atropisomer, axis not shown) [Example 4, (R)-(2-amino-1-(3-hydroxy-2,6-dimethylphenyl)-1H-pyrrolo[2,3-b]pyridin-3-yl)(1H-benzo[d]imidazol-2-yl)methanone] | ≤ 5 °C | 
Cc1ccc(O)c(C)c1-n1c(N)c(C(=O)c2cc3sccc3[nH]2)c2nccnc21 (atropisomer, axis not shown) [Example 6, (R)-(6-amino-5-(3-hydroxy-2,6-dimethylphenyl)-5H-pyrrolo[2,3-b]pyrazin-7-yl)(4H-thieno[3,2-b]pyrrol-5-yl)methanone] |  | B (5 °C ≥ ΔTm (° C.))
Cc1ccc(O)c(C)c1-n1c(N)c(C(=O)c2cc3occc3[nH]2)c2nccnc21 (atropisomer, axis not shown) [Example 8, (R)-(6-amino-5-(3-hydroxy-2,6-dimethylphenyl)-5H-pyrrolo[2,3-b]pyrazin-7-yl)(4H-furo[3,2-b]pyrrol-5-yl)methanone] |  | B (5 °C ≥ ΔTm (° C.))
Cc1ccc(O)c(C)c1-n1c(N)c(C(=O)c2cc3ccccc3[nH]2)c2nc(C)c(C)nc21 (atropisomer, axis not shown) [Example 10, (R)-(6-amino-5-(3-hydroxy-2,6-dimethylphenyl)-2,3-dimethyl-5H-pyrrolo[2,3-b]pyrazin-7-yl)(1H-indol-2-yl)methanone] |  | B (5 °C ≥ ΔTm (° C.))
Cc1cc2c(C(=O)c3nc4ccccc4[nH]3)c(N)n(-c3c(C)ccc(O)c3C)c2nc1C (atropisomer, axis not shown) [Example 11, (S)-(2-amino-1-(3-hydroxy-2,6-dimethylphenyl)-5,6-dimethyl-1H-pyrrolo[2,3-b]pyridin-3-yl)(1H-benzo[d]imidazol-2-yl)methanone] | ≥ 5 °C | 

The remaining lines, values ahead:

ΔTm at 100 µM | ΔTm (° C.) | Structure (SMILES)
 | B (5 °C ≥ ΔTm (° C.)) | Cc1cc2c(C(=O)c3nc4ccccc4[nH]3)c(N)n(-c3c(C)ccc(O)c3C)c2nc1C (atropisomer, axis not shown) [Example 12, (R)-(2-amino-1-(3-hydroxy-2,6-dimethylphenyl)-5,6-dimethyl-1H-pyrrolo[2,3-b]pyridin-3-yl)(1H-benzo[d]imidazol-2-yl)methanone]
 | B (5 °C ≥ ΔTm (° C.)) | Cc1ccc(O)c(C)c1-n1c(N)c(C(=O)c2cc3cnc(N4CCOCC4)cc3[nH]2)c2nc(C)c(C)nc21 (atropisomer, axis not shown) [Example 16, (R)-(6-amino-5-(3-hydroxy-2,6-dimethylphenyl)-2,3-dimethyl-5H-pyrrolo[2,3-b]pyrazin-7-yl)(6-morpholino-1H-pyrrolo[3,2-c]pyridin-2-yl)methanone]
≤ 5 °C |  | Cc1ccc(O)c(C)c1-n1c(N)c(C(=O)c2cc3occc3[nH]2)c2nc(C)c(C)nc21 (atropisomer, axis not shown) [Example 17, (S)-(6-amino-5-(3-hydroxy-2,6-dimethylphenyl)-2,3-dimethyl-5H-pyrrolo[2,3-b]pyrazin-7-yl)(4H-furo[3,2-b]pyrrol-5-yl)methanone]
 | B (5 °C ≥ ΔTm (° C.)) | Cc1ccc(O)c(C)c1-n1c(N)c(C(=O)c2cc3cc(CN4CCOCC4)ccc3[nH]2)c2nccnc21 (atropisomer, axis not shown) [Example 20, (R)-(6-amino-5-(3-hydroxy-2,6-dimethylphenyl)-5H-pyrrolo[2,3-b]pyrazin-7-yl)(5-(morpholinomethyl)-1H-indol-2-yl)methanone]
≤ 5 °C |  | Cc1ccc(O)c(C)c1-n1c(N)c(C(=O)c2cc3cc(N4CCN(C)CC4)ccc3[nH]2)c2nccnc21 (atropisomer, axis not shown) [Example 21, (S)-(6-amino-5-(3-hydroxy-2,6-dimethylphenyl)-5H-pyrrolo[2,3-b]pyrazin-7-yl)(5-(4-methylpiperazin-1-yl)-1H-indol-2-yl)methanone]
